Reference: patent publication US20140094424A1, “MICROBICIDAL COMPOSITIONS AND METHODS OF PRODUCTION USE THEREOF” (priority 2011, published 2014)

What was measured:
[1] = tested on: Aspergillus glaucus- DMO (Q); assay: MBC (minimum bactericidal concentration) test in Wash NEXT reagent; assay type: cell-based
Description: (§1) The stock organisms were thawed and subbed prior to beginning the MBC test. Molds were subbed to SDA plates one week before, and the bacteria were subbed to TAT agar plates 24 hours prior to the start of the test. All plates were incubated at 32 degrees C.
(§2) For the molds, each organism was inoculated into 40 ml sterile saline in a centrifuge tube to create a density of MacFarland #5. Two serial dilutions of 1:100 were then made, resulting in 10^−2 and 10^−4 concentrations. Each dilution was vortexed before it was sampled, and sterile Eppendorf pipette tips were used to make each transfer. The 10^−4 dilution was spiral plated to yield the initial inoculum concentration.
(§3) MBC trays were set up with the prepared test reagent. Using a Matrix pipettor, 100 μl aliquots of reagent were distributed into the wells, diluting the amount of preservative from 100% to 10% increments, using unpreserved reagent as the diluent. In one row, 100% non-preserved reagent acted as a positive control and served as a benchmark for a full mat of growth. In well #12H, 100 μl unpreserved reagent was pipetted, and this well was not inoculated with organisms, as it served as the negative control. Once all of the trays were prepared, the prepared bacteria/mold suspensions were poured into the MBC inoculating trays. These were placed onto the reagent trays, and 0.01 ml inoculum was introduced into the 100 μl of reagent in each well.
(§4) This was done by dipping a sterile cotton swab into each well, and absorbing all of the liquid in the well. The swab was rolled onto a TAT agar plate ensuring that the entire swab touches the agar. Plates ware incubated at 32 degrees C. for 48 hours to 7 days, depending on the organism. Observations for growth were performed by a scoring matrix using + for a full mat, +/− for some growth, a numerical value for an actual colony count, and—for no growth.
(§5) Below are tables that contain the data obtained in Example 1. The MBC test is scored by (+) indicating a full grown mat of organisms, equivalent to the organisms in the unpreserved reagent. (+/−) indicates there is some kill evident disturbing that mat or bringing the quantities down to an almost countable level. An actual number is the actual number of colonies growing at that concentration of preservative. (−) indicates no growth found. The MBC trays were stored at room temperature for the entire test.
(§6) The materials and methods and analysis of the MBC test were the same as in Example 1.

[2] = tested on: Penicillium notatum-KMO (R); assay: as above; assay type: cell-based; conditions: for total kill at % preservative (MBC): at 14 days
Description: as §1, §2, §3, §4, §5, §6

For `[N-]=[N+]=[N-]` [Sodium Azide, sodium azide], the “MBC test growth score” value ([1]; 10% preservative, 8 hour) was “+”, the “MBC test growth score” value ([1]; 10% preservative, 24 hour) was “+” and the “MBC test growth score” value ([1]; 10% preservative, 48 hour) was “+”. The “MBC test growth score” value ([1]; 10% preservative, 72 hour) was “+”, the “MBC test growth score” value ([1]; 10% preservative, 7 day) was “+” and the “MBC test growth score” value ([1]; 10% preservative, 14 day) was “+/−”. For the same compound, the “MBC test growth score” value ([1]; 20% preservative, 8 hour) was “+”, the “MBC test growth score” value ([1]; 20% preservative, 24 hour) was “+” and the “MBC test growth score” value ([1]; 20% preservative, 48 hour) was “+”. For the same compound, the “MBC test growth score” value ([1]; 20% preservative, 72 hour) was “+”, the “MBC test growth score” value ([1]; 20% preservative, 7 day) was “+” and the “MBC test growth score” value ([1]; 20% preservative, 14 day) was “+/−”. For the same compound, the “MBC test growth score” value ([1]; 30% preservative, 8 hour) was “+”, the “MBC test growth score” value ([1]; 30% preservative, 24 hour) was “+” and the “MBC test growth score” value ([1]; 30% preservative, 48 hour) was “+”. For the same compound, the “MBC test growth score” value ([1]; 30% preservative, 72 hour) was “+”, the “MBC test growth score” value ([1]; 30% preservative, 7 day) was “+” and the “MBC test growth score” value ([1]; 30% preservative, 14 day) was “+/−”. The “MBC test growth score” value ([1]; 40% preservative, 8 hour) was “+”, the “MBC test growth score” value ([1]; 40% preservative, 24 hour) was “+” and the “MBC test growth score” value ([1]; 40% preservative, 48 hour) was “+”. The “MBC test growth score” value ([1]; 40% preservative, 72 hour) was “+”, the “MBC test growth score” value ([1]; 40% preservative, 7 day) was “+” and the “MBC test growth score” value ([1]; 40% preservative, 14 day) was “+/−”. The “MBC test growth score” value ([1]; 50% preservative, 8 hour) was “+”, the “MBC test growth score” value ([1]; 50% preservative, 24 hour) was “+” and the “MBC test growth score” value ([1]; 50% preservative, 48 hour) was “+”. The “MBC test growth score” value ([1]; 50% preservative, 72 hour) was “+”, the “MBC test growth score” value ([1]; 50% preservative, 7 day) was “+” and the “MBC test growth score” value ([1]; 50% preservative, 14 day) was “+/−”. For the same compound, the “MBC test growth score” value ([1]; 60% preservative, 8 hour) was “+”, the “MBC test growth score” value ([1]; 60% preservative, 24 hour) was “+” and the “MBC test growth score” value ([1]; 60% preservative, 48 hour) was “+”. The “MBC test growth score” value ([1]; 60% preservative, 72 hour) was “+”, the “MBC test growth score” value ([1]; 60% preservative, 7 day) was “+” and the “MBC test growth score” value ([1]; 60% preservative, 14 day) was “+/−”. For the same compound, the “MBC test growth score” value ([1]; 70% preservative, 8 hour) was “+”, the “MBC test growth score” value ([1]; 70% preservative, 24 hour) was “+” and the “MBC test growth score” value ([1]; 70% preservative, 48 hour) was “+”. The “MBC test growth score” value ([1]; 70% preservative, 72 hour) was “+”, the “MBC test growth score” value ([1]; 70% preservative, 7 day) was “+” and the “MBC test growth score” value ([1]; 70% preservative, 14 day) was “+/−”. The “MBC test growth score” value ([1]; 80% preservative, 8 hour) was “+”, the “MBC test growth score” value ([1]; 80% preservative, 24 hour) was “+” and the “MBC test growth score” value ([1]; 80% preservative, 48 hour) was “+”. The “MBC test growth score” value ([1]; 80% preservative, 72 hour) was “+”, the “MBC test growth score” value ([1]; 80% preservative, 7 day) was “+” and the “MBC test growth score” value ([1]; 80% preservative, 14 day) was “+/−”. The “MBC test growth score” value ([1]; 90% preservative, 8 hour) was “+”, the “MBC test growth score” value ([1]; 90% preservative, 24 hour) was “+” and the “MBC test growth score” value ([1]; 90% preservative, 48 hour) was “+”. The “MBC test growth score” value ([1]; 90% preservative, 72 hour) was “+”, the “MBC test growth score” value ([1]; 90% preservative, 7 day) was “+” and the “MBC test growth score” value ([1]; 90% preservative, 14 day) was “+/−”. The “MBC test growth score” value ([1]; 100% preservative, 8 hour) was “+”, the “MBC test growth score” value ([1]; 100% preservative, 24 hour) was “+” and the “MBC test growth score” value ([1]; 100% preservative, 48 hour) was “+”. For the same compound, the “MBC test growth score” value ([1]; 100% preservative, 72 hour) was “+”, the “MBC test growth score” value ([1]; 100% preservative, 7 day) was “+” and the “MBC test growth score” value ([1]; 100% preservative, 14 day) was “+/−”. For the same compound, the “total kill at % preservative (MBC)” value ([1]; at 14 days, listed as Na Azide) was “No kill @ 100%”, the growth ([2]; 10%, 8 hour) was “+” and the growth ([2]; 10%, 24 hour) was “+”. For the same compound, the growth ([2]; 10%, 48 hour) was “+/−”, the “growth (number of organisms counted)” value ([2]; 10%, 72 hour) was 24 and the “growth (number of organisms counted)” value ([2]; 10%, 7 day) was 20. For the same compound, the “growth (number of organisms counted)” value ([2]; 10%, 14 day) was 14, the growth ([2]; 20%, 8 hour) was “+” and the growth ([2]; 20%, 24 hour) was “+”. The growth ([2]; 20%, 48 hour) was “+/−”, the “growth (number of organisms counted)” value ([2]; 20%, 72 hour) was 22 and the “growth (number of organisms counted)” value ([2]; 20%, 7 day) was 19. The “growth (number of organisms counted)” value ([2]; 20%, 14 day) was 11, the growth ([2]; 30%, 8 hour) was “+” and the growth ([2]; 30%, 24 hour) was “+”. The growth ([2]; 30%, 48 hour) was “+/−”, the “growth (number of organisms counted)” value ([2]; 30%, 72 hour) was 22 and the “growth (number of organisms counted)” value ([2]; 30%, 7 day) was 19. For the same compound, the “growth (number of organisms counted)” value ([2]; 30%, 14 day) was 8, the growth ([2]; 40%, 8 hour) was “+” and the growth ([2]; 40%, 24 hour) was “+”. The growth ([2]; 40%, 48 hour) was “+/−”, the “growth (number of organisms counted)” value ([2]; 40%, 72 hour) was 18 and the “growth (number of organisms counted)” value ([2]; 40%, 7 day) was 15. For the same compound, the “growth (number of organisms counted)” value ([2]; 40%, 14 day) was 6, the growth ([2]; 50%, 8 hour) was “+” and the growth ([2]; 50%, 24 hour) was “+”. For the same compound, the growth ([2]; 50%, 48 hour) was “+/−”, the “growth (number of organisms counted)” value ([2]; 50%, 72 hour) was 15 and the “growth (number of organisms counted)” value ([2]; 50%, 7 day) was 12. The growth ([2]; 50%, 14 day) was “−”, the growth ([2]; 60%, 8 hour) was “+” and the growth ([2]; 60%, 24 hour) was “+”. The growth ([2]; 60%, 48 hour) was “+/−”, the “growth (number of organisms counted)” value ([2]; 60%, 72 hour) was 13 and the “growth (number of organisms counted)” value ([2]; 60%, 7 day) was 10. The growth ([2]; 60%, 14 day) was “−”, the growth ([2]; 70%, 8 hour) was “+” and the growth ([2]; 70%, 24 hour) was “+”. For the same compound, the growth ([2]; 70%, 48 hour) was “+/−”, the “growth (number of organisms counted)” value ([2]; 70%, 72 hour) was 11 and the “growth (number of organisms counted)” value ([2]; 70%, 7 day) was 9. The growth ([2]; 70%, 14 day) was “−”, the growth ([2]; 80%, 8 hour) was “+” and the growth ([2]; 80%, 24 hour) was “+”. The growth ([2]; 80%, 48 hour) was “+/−”, the “growth (number of organisms counted)” value ([2]; 80%, 72 hour) was 9 and the “growth (number of organisms counted)” value ([2]; 80%, 7 day) was 6. The growth ([2]; 80%, 14 day) was “−”, the growth ([2]; 90%, 8 hour) was “+” and the growth ([2]; 90%, 24 hour) was “+”. For the same compound, the growth ([2]; 90%, 48 hour) was “+/−”, the “growth (number of organisms counted)” value ([2]; 90%, 72 hour) was 7 and the “growth (number of organisms counted)” value ([2]; 90%, 7 day) was 4. For the same compound, the growth ([2]; 90%, 14 day) was “−”, the growth ([2]; 100%, 8 hour) was “+” and the growth ([2]; 100%, 24 hour) was “+”. For the same compound, the growth ([2]; 100%, 48 hour) was “+/−”, the “growth (number of organisms counted)” value ([2]; 100%, 72 hour) was 6 and the “growth (number of organisms counted)” value ([2]; 100%, 7 day) was 3. The growth ([2]; 100%, 14 day) was “−”, the “total kill at % preservative (MBC)” value [2] was “had total kill at 50% preservative at 14” and the “total kill at % preservative (MBC)” value ([2]; listed as Na Azide) was “Total kill @ 50%”.
